Results taken from US20190183812A1, “Compounds For The Treatment Of Neuromuscular Disorders” (NMD PHARMA A/S, priority 2017, published 2019).

What was measured:
CIC-1 ion channels = molecular target: T1, CIC-1 ion channels (Homo sapiens, UniProt P35523); assay: Resting membrane conductance (Gm), three-electrode technique, human muscle: Kd for CIC-1 inhibition; format: cell-based; details: concentration that reduced Gm by 50%
T1 construct: Isolated soleus muscles from adult rats or human abdominal muscles preparations were placed in a chamber; from tissue; host or cells: human abdominal muscle from patients
T1 sequence (P35523 whole entry): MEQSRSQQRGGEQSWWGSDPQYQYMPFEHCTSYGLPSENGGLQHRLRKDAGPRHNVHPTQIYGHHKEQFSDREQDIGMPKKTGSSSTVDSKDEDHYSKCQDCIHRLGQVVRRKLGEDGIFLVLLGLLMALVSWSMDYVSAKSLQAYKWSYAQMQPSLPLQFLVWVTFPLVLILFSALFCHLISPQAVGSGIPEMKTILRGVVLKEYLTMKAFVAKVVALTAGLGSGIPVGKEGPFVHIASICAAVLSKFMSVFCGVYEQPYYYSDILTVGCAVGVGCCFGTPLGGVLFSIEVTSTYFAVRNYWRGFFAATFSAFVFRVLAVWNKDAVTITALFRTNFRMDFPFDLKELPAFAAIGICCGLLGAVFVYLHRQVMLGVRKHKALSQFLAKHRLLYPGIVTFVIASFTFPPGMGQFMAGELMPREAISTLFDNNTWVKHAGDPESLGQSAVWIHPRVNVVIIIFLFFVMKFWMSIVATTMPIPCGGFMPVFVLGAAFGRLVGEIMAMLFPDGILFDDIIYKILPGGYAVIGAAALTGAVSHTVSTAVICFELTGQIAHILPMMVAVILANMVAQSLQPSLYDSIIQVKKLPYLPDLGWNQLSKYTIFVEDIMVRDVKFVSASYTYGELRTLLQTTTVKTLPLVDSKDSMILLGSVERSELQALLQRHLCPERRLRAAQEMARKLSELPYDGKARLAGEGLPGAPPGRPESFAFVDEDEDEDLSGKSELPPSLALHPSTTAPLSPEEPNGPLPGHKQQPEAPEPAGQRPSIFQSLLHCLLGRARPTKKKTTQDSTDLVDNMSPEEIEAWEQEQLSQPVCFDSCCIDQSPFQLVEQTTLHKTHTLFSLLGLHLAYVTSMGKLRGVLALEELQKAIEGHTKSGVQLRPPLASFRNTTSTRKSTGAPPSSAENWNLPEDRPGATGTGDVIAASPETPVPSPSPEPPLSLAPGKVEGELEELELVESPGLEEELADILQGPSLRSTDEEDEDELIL

rat soleus muscles [1] = format: cell-based; details: 10 and 25 μM; 1 μM μ-conotoxin GiiiB
rats [2] = assay: Rotarod running performance of rats after I.P. tubocurarine (myasthenia like phenotype); format: in vivo, rat; details: 20 mg/kg I.P., 2 hrs before tubocurarine 0.13 mg/kg
Description: FIGS. 9A-9B. […] FIG. 9A illustrates the design of the experiments. Prior to Day One the animals had been familiarized to the rotarod in three training sessions distributed over two days.
(§1) In both series of experiments, running performance was tested on a rotarod using a protocol where the rod was accelerated gradually over a 5 min period, and the running time and covered distance before falling off the rod were measured. […] Experiments with tubocurarine were carried out over two days, and on each day the effect of tubocurarine on running performance was tested. On the first day only tubocurarine was injected. […] On the second day, the animals were first allowed to run on the rotarod, and all animals performed normally. […] The allocation of the animals into the two groups (C8 or sham) was random and unknown to the experimenter (blinded experimental design).
In the first series of in vivo experiments, myasthenia gravis was simply mimicked by I.P. injection of tubocurarine (0.13 mg/kg) in animals that had been familiarized to running on the rotarod. On the first of two consecutive days, tubocurarine was injected I.P. and the running performance of the animal was tested 21 minutes after this injection. On the second day of experimentation, the animals first performed a test run to ensure that they were no longer affected by the tubocurarine injected the day before. […]

isolated human muscles = details: 150 μM; elevated K+ and TTX
rat soleus muscles [3] = assay: Tubocurarine concentration required to depress nerve-stimulated force by 50% (Kd,tub), combination with acetylcholinesterase inhibitors
Description: FIGS. 5A-5E. […] Muscles from 4-week-old rats were stimulated to contract by activating the motor nerve with short duration pulses in field stimulation. Muscles contracted every 10 min for 2 s in response to 30 Hz stimulation. Four different experimental conditions were used. […] After this pre-incubation, increasing concentrations of tubocurarine were added to the bath solutions with 60 min (corresponding to six contractions) between each increase in tubocurarine. […] FIG. 5C similar to FIG. 5A but this muscle had been pre-incubated with neostigmine. […] The force integral (AUC) was determined at each tubocurarine concentration. Such AUC determinations were plotted against tubocurarine concentration for each muscle.
CIC-1 is a novel target in treatment of neuromuscular complications and it was therefore explored whether this approach for symptomatic treatment could be used in combination with existing symptomatic treatment approaches. In myasthenia gravis, which in isolated muscles was mimicked by tubocurarine, the symptoms of muscle fatigue are most commonly treated with inhibitors of acethylcholineesterase of which neostigmine and pyridostigmine are examples. Also, neostigmine is the most commonly used reversal agent of neuromuscular blocked after surgery. […] FIG. 5A-D show recordings of nerve-stimulated force production at different tubocurarine concentrations when tested under the four experimental conditions. […] To quantify the effect of compounds on tubocurarine sensitivity, the force at the different tubocurarine concentrations was determined. In plots of nerve-stimulated force against tubocurarine concentration (FIG. 5E) Kd,tub was determined by fitting four parameter sigmoidal functions to the data and the Kd,tub for the different compounds have been collected in Table 4.

[4] = tested on: isolated rat soleus muscles; assay: Recovery of nerve-stimulated force in isolated rat soleus muscles exposed to sub-maximal tubocurarine; details: Rattus norvegicus, 40 min; read-out: 50 μM % change after addition
Description: Experiments were performed using rat soleus muscles from either young (4-wk-old) or adult Wistar rats (12-14-week-old). Animal handling, killing and isolation of muscle is described elsewhere All experiments were performed using normal Krebs-Ringer bicarbonate solution (NKR). In solutions with elevated Mg^2+, MgCl2 was added to NKR-solution causing minor increases in osmolarity and ionic strength. In solutions with elevated K^+, 4 mM NaCl was replaced by 4 mM KCl in the NKR.
In all contraction experiments, isometric force production was determined and force produced during contractions was quantified by measuring the integral of the force response (AUC). Stimulation and force recordings have been described elsewhere. […] In these latter experiments, extracellular recordings of action potentials (M-waves) could be measured without temporal overlap with stimulation artefacts.
The aim was to find compounds that by inhibition of CIC-1 channels can recover nerve-stimulated force under conditions of fatigue including conditions where fatigue is caused by compromised neuromuscular transmission. Neuromuscular transmission dysfunction can develop because of both pre- and/or post-synaptic complications in connection with a disorder or as part of neuromuscular blockade during/after surgery. In the initial series of drug testing, experiments were performed with isolated muscles in the presence of sub-maximal ACh receptor antagonist tubocurarine. Since the inclusion of tubocurarine caused a partial loss of neuromuscular transmission this experiment mimics the conditions in myasthenia gravis and neuromuscular blockade. To mimic conditions with pre-synaptic complication (Lambert Eaton syndrome, motor neuron disorder, polyneuropathy) the intact nerve-muscle preparations were incubated at elevated extracellular Mg^2+, which is known to suppress release of ACh from nerve terminals of motor neurons.
To identify CIC-1 inhibitors that could be used for treatment of neuromuscular disorders we repeated the experiment shown in FIG. 2A but instead of adding 9-AC we added the compounds of interest in different concentrations within the range from 10 to 500 μM. […] For comparison with the muscle only exposed to tubocurarine (grey trace), the two traces have been overlaid. […] For comparison, muscles only exposed to tubocurarine have been included. The dotted line indicates the recovery of force with C8 when compared to the force production before its addition. This value was used in Table 1 for evaluation of the efficacy of the different compounds in recovering force.

rat soleus muscles [5] = assay: Mg2+ concentration required to depress nerve-stimulated force by 50% (Kd,Mg2+), combination with 3,4-AP
Description: FIGS. 6A-6E. […] Muscles from 4-week-old rats were stimulated to contract by activating the motor nerve with short duration pulses in field stimulation. Muscles contracted every 10 min for 2 s in response to 30 Hz stimulation. Four different experimental conditions were used. […] C) similar to A) but this muscle had been pre-incubated with 3,4-AP. […] The force integral (AUC) was determined at each extracellular Mg^2+ concentration. AUC was plotted against Mg^2+ concentration and the data was fitted to a sigmoidal function. This provided the extracellular Mg^2+ concentration that was required to reduce the nerve-stimulated force to 50% (Mg50) under the four different conditions (see Table 5).
While the use of tubocurarine mimics conditions with reduced neuromuscular transmission due to post-synaptic dysfunction (myasthenia gravis, neuromuscular blockade), the experiments with elevated extracellular Mg^2+ mimics conditions with pre-synaptic dysfunction akin to a range of neuromuscular disorders including Lambert Eaton syndrome, motor neuron disorders and polyneuropathy. Patients with Lambert Eaton syndrome are commonly treated with inhibitors of voltage gated K^+ channels such as 3,4-diaminopyridine (3,4-AP). Based on this it was determined whether recovery of nerve-stimulated force at elevated extracellular Mg^2+ with CIC-1 inhibiting compounds could be added to force recovery with 3,4-AP. […] FIG. 6A-D show recordings of nerve-stimulated force production at different Mg^2+ concentrations when tested under these four experimental conditions. […] To quantify the effect of compounds on Mg^2+ sensitivity the force at the different Mg^2+ concentrations was determined. In plots of nerve-stimulated force against Mg^2+ concentration (FIG. 6E) the Kd,Mg^2+ was determined by fitting four parameter sigmoidal function to the data. Kd, Mg^2+ for the different compounds have been collected in Table 5.

rats [6] = assay: Rotarod running performance in passive immunization (MAB35) rat model of myasthenia gravis; format: in vivo
Description: FIG. 10. […] Prior to I.P. injection of MAB35 the animals had been familiarized to the rotarod over three training sessions distributed over two days. […] After this treatment performance was monitored every second hour. *Indicates significant different as evaluated using student t-test.
as §1
In experiments with MAB35, animals were first familiarized with the rotarod over two consecutive days and then injected I.P. with MAB35. After injection, rotarod performance was then again monitored regularly over the consecutive two days. […] A considerable number of animals, however, became moribund failing to walk and they had altered ventilation (rapid) and pronounced ptosis. These animals were not included in experiments. […]

`C[C@H](Oc1ccc(Br)cc1)C(=O)O` [Compound C8, (2S)-2-(4-bromophenoxy)propanoic acid] was tested, and the Kd (CIC-1 ion channels) was 5.5 µM, the EPP amplitude (rat soleus muscles [1]) was “significantly larger EPPs” and the “increase in distance run on the second day compared to the first day” value (rats [2]) was “around 150%”. For the same compound, the contractile force (isolated human muscles) was “markedly recovery”, the Kd (rat soleus muscles [3]; Compound (50 μM) + Neostigmine (10 nM)) was 218 ± 18 nM and the Kd (rat soleus muscles [3]; Compound (50 μM) + Pyridostigmine (100 nM)) was 186 ± 5 nM. For the same compound, the Kd (rat soleus muscles [3]; Compound (50 μM) alone) was 177 ± 7 nM, the activation at 50 µM [4] was 16% and the “effect of combination on recovery of neuromuscular transmission” value (rat soleus muscles [5]; C8 and 3,4-diaminopyridine together) was “unexpected synergistic effect”. For the same compound, the Kd (rat soleus muscles [5]; Compound (50 μM) + 3,4-AP (10 μM)) was 7.8 ± 0.5 mM, the Kd (rat soleus muscles [5]; Compound (50 μM) alone) was 4 ± 0.1 mM and the “rotarod performance after injection” value (rats [6]; 20 mg/kg) was “decline was reduced”. For the same compound, the “rotarod performance after injection” value (rats [6]; 30 mg/kg) was “clear recovery of performance”.
